From ChEMBL document CHEMBL4823252 (J Med Chem, 2021)
Blank lines part the entries; values can stand above or below the compound they belong to. Active and inactive are the calls of the source. The rule behind the calls is not given here.

Experiments:
[1] = biological target: Receptor-type tyrosine-protein kinase FLT3 (Homo sapiens) (UniProt P36888); experiment: Inhibition of FLT3 in human MOLM-13 cells assessed as reduction in STAT5 phosphorylation incubated for 2 hrs by Western blot analysis; assay type: cell-based
[2] = Toxicity in mouse xenografted with human MV4-11 cells assessed as effect on lung at 2.5 to 10 mg/kg, po administered for 16 days by hematoxylin and eosin staining assay; assay type: organism-based; conditions: in vivo, 384 h, dose 2.5-10 mg/kg, time 16 day
MV4-11 [3] = experiment: Antitumor activity against human MV4-11 cells xenografted in mouse assessed as tumor growth inhibition at 2.5 mg/kg, po administered for 20 days measured once every 2 days relative to control; assay type: functional; conditions: MV4-11, po, 480 h, time 20 day, read-out: TGI
[4] = biological target: Platelet-derived growth factor receptor beta (Homo sapiens, UniProt P09619); experiment: Inhibition of PDGFRbeta (unknown origin) incubated for 30 mins in presence of ATP by mobility shift assay
[5] = Toxicity in mouse xenografted with human MV4-11 cells assessed as effect on kidney at 2.5 to 10 mg/kg, po administered for 16 days by hematoxylin and eosin staining assay; assay type: organism-based; conditions: in vivo, 384 h, dose 2.5-10 mg/kg, time 16 day
MV4-11 [6] = experiment: Induction of cell cycle arrest in human MV4-11 cells assessed as accumulation at sub-G1 phase at 100 nM incubated for 24 hrs by flow cytometry (reference value: […]%); assay type: functional
[7] = Toxicity in mouse xenografted with human MOLM-13 cells assessed as effect on heart at 10 to 40 mg/kg, po administered for 20 days by hematoxylin and eosin staining assay; assay type: organism-based; conditions: in vivo, 480 h, dose 10-40 mg/kg, time 20 day
MOLM-13 [8] = experiment: Induction of cell cycle arrest in human MOLM-13 cells assessed as accumulation at G2/M phase at 10 nM incubated for 24 hrs by flow cytometry (reference value: […]); assay type: functional
U-937 = experiment: Antiproliferative activity against human U-937 cells measured after 72 hrs by CCK8 assay; assay type: functional, cell-based; conditions: U-937, 72 h
[9] = Tmax in Sprague-Dawley rat at 10 mg/kg, po; assay type: ADME, organism-based; conditions: in vivo
[10] = biological target: Vascular endothelial growth factor receptor 2 (Homo sapiens, UniProt P35968); experiment: Inhibition of VEGFR2 (unknown origin) incubated for 30 mins in presence of ATP by mobility shift assay
MOLM-13 [11] = experiment: Induction of apoptosis in human MOLM-13 cells assessed as viable cells at 10 nM incubated for 24 hrs by flow cytometry (reference value: 92.83%); assay type: functional; conditions: read-out: Activity
MOLM-13 [12] = experiment: Antitumor activity against human MOLM-13 cells xenografted in po dosed mouse assessed as tumor growth inhibition administered for 20 days measured once every 2 days; assay type: functional, organism-based; conditions: time 20.0 day
[13] = AUC (0 to last) in Sprague-Dawley rat at 10 mg/kg, po; assay type: ADME, organism-based; design: route oral, time 0 - last, dose 10 mg/kg; conditions: in vivo
MOLM-13 [14] = experiment: Antitumor activity against human MOLM-13 cells xenografted in po dosed mouse assessed as induction of apoptosis administered for 16 days measured once for every 2 days by caspase3 staining based immunohistochemical analysis; assay type: functional, organism-based; conditions: time 16.0 day
MOLM-13 [15] = experiment: Induction of cell cycle arrest in human MOLM-13 cells assessed as accumulation at G2/M phase at 1 nM incubated for 24 hrs by flow cytometry (reference value: […]); assay type: functional
[16] = tested on: Receptor-type tyrosine-protein kinase FLT3 (Homo sapiens), P36888 [D835Y]; experiment: Binding affinity to FLT3 D835Y mutant (unknown origin) at 1000 nM relative to control
MV4-11 [17] = experiment: Induction of cell cycle arrest in human MV4-11 cells assessed as accumulation at sub-G1 phase at 1 nM incubated for 24 hrs by flow cytometry (reference value: […]%); assay type: functional
[18] = tested on: Receptor-type tyrosine-protein kinase FLT3 (Homo sapiens), P36888 [R834Q]; experiment: Binding affinity to FLT3 R834Q mutant (unknown origin) at 1000 nM relative to control
[19] = biological target: Mast/stem cell growth factor receptor Kit (Homo sapiens, UniProt P10721); experiment: Inhibition of c-KIT (unknown origin) incubated for 30 mins in presence of ATP by mobility shift assay
[20] = Toxicity in mouse xenografted with human MOLM-13 cells assessed as effect on kidney at 10 to 40 mg/kg, po administered for 20 days by hematoxylin and eosin staining assay; assay type: organism-based; conditions: in vivo, 480 h, dose 10-40 mg/kg, time 20 day
MV4-11 [21] = experiment: Induction of apoptosis in human MV4-11 cells assessed as late apoptotic cells at 100 nM incubated for 24 hrs by flow cytometry (reference value: 0.58%); assay type: functional
[22] = Toxicity in mouse xenografted with human MOLM-13 cells assessed as effect on liver at 10 to 40 mg/kg, po administered for 20 days by hematoxylin and eosin staining assay; assay type: organism-based; conditions: in vivo, 480 h, dose 10-40 mg/kg, time 20 day
MV4-11 [23] = experiment: Antitumor activity against human MV4-11 cells xenografted in mouse assessed as tumor growth inhibition at 5 mg/kg, po administered for 20 days measured once every 2 days relative to control; assay type: functional; conditions: MV4-11, po, 480 h, time 20 day, read-out: TGI

Sequence of Mast/stem cell growth factor receptor Kit (P10721 whole entry): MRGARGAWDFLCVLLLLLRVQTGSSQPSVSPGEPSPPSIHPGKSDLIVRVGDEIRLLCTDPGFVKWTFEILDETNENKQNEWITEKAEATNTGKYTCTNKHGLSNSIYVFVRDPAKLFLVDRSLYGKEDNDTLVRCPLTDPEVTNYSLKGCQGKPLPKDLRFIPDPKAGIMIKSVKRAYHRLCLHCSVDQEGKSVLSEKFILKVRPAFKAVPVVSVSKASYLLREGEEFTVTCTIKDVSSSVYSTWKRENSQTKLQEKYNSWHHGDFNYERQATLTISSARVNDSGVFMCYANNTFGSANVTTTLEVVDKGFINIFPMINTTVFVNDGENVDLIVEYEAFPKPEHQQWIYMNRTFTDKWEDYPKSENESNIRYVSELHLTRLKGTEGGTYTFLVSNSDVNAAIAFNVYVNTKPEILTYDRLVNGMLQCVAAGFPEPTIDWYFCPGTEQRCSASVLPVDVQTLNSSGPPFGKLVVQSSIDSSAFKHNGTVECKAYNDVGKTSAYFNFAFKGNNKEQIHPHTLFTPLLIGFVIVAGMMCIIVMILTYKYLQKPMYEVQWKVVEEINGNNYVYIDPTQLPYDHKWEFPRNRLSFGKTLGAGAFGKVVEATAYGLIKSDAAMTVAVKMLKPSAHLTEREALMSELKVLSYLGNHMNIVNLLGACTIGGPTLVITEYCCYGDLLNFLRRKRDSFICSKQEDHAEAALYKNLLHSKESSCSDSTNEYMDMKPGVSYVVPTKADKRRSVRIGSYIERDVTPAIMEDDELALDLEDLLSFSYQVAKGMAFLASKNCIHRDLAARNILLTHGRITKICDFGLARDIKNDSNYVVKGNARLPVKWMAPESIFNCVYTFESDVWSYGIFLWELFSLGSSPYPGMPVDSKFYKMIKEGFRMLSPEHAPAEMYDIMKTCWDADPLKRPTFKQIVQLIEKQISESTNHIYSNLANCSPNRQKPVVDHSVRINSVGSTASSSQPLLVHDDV
Sequence of Platelet-derived growth factor receptor beta (P09619 whole entry): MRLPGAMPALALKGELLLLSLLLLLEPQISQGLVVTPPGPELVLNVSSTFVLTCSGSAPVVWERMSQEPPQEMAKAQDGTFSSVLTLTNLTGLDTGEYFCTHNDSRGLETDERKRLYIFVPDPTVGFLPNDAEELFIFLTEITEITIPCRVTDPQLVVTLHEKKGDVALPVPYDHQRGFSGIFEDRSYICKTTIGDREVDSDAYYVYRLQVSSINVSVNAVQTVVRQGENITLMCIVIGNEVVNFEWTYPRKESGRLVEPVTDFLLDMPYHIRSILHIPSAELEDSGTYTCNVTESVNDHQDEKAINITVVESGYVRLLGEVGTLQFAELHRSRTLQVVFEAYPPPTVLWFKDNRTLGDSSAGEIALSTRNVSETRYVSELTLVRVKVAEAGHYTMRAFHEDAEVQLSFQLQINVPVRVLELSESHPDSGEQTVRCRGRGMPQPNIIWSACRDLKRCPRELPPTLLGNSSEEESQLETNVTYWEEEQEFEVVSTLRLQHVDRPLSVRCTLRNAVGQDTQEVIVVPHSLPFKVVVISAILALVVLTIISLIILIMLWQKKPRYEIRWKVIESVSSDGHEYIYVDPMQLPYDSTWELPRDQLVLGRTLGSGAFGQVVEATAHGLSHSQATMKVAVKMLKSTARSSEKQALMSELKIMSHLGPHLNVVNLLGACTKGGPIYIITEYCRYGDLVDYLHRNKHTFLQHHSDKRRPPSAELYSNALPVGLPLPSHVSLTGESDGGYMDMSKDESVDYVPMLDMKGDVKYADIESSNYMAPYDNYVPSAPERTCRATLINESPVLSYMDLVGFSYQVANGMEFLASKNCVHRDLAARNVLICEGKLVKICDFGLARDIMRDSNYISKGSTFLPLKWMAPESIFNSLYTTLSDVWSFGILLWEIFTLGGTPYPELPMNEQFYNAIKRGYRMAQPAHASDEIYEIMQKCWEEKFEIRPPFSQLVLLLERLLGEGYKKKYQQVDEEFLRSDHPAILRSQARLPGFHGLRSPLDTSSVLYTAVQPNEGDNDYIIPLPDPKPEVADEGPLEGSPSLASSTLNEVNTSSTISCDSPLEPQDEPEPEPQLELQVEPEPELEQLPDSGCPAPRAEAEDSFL
Sequence of Vascular endothelial growth factor receptor 2 (P35968 whole entry): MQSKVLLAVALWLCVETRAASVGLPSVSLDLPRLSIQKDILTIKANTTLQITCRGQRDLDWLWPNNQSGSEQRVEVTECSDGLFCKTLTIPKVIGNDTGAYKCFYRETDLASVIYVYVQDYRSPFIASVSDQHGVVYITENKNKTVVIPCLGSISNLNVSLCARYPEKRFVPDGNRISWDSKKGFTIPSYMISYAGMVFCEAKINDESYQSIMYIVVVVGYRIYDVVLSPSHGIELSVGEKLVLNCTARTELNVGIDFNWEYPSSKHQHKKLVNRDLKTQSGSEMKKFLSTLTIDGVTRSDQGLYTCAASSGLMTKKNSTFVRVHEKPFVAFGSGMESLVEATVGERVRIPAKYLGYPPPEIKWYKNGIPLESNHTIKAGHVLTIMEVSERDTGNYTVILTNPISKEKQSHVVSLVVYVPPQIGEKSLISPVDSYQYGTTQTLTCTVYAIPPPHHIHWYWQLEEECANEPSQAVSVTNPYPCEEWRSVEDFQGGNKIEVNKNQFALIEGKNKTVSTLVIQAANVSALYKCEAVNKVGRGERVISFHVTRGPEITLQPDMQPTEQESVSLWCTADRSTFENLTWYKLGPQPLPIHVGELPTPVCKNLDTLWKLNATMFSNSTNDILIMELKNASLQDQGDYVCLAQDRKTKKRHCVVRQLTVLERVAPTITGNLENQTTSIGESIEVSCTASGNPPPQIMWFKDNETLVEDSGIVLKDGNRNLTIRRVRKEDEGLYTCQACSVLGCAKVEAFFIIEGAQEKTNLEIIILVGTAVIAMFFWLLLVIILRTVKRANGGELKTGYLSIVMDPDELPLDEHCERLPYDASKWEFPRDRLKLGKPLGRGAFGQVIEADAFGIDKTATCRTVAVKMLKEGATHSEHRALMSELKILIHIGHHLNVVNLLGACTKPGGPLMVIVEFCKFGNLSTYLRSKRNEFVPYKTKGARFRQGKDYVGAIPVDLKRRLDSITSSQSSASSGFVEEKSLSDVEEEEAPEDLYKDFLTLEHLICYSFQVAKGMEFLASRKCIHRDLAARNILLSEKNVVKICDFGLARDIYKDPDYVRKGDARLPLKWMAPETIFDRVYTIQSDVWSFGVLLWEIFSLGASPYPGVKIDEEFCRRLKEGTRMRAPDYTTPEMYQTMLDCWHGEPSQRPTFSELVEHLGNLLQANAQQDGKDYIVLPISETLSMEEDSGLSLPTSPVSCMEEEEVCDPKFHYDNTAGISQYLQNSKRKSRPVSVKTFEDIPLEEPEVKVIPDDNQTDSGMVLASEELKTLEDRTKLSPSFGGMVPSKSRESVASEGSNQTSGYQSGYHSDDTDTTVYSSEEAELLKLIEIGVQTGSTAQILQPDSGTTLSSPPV

Activity [1]: Dose-Dependent Effect
IC50 [4]: 41.8 nM
IC50 (U-937): 5260 nM
Tmax [9]: 2.7 h
IC50 [10]: 137 nM
AUC(0-t) [13]: 21200 ng·h/mL
Activity [16]: Active
Activity [18]: Active
IC50 [19]: > 1000 nM
SMILES: Cc1c(NC(=O)CCN2CCCC2)c[nH]c1/C=C1\C(=O)Nc2ccc(F)cc21
Activity [2]: Non-Toxic
inhibition in vivo at 2.5 mg/kg (MV4-11 [3]): 55.7%
Activity [5]: Non-Toxic
Activity (MV4-11 [6]): 30.54%
Activity [7]: Non-Toxic
Activity (MOLM-13 [8]): 2.32%
viability at 0.01 µM (MOLM-13 [11]): 62.3%
Activity (MOLM-13 [12]): Dose-Dependent Effect
Activity (MOLM-13 [14]): Dose-Dependent Effect
Activity (MOLM-13 [15]): 7.13%
Activity (MV4-11 [17]): 13.92%
Activity [20]: Non-Toxic
Activity (MV4-11 [21]): 8.73%
Activity [22]: Non-Toxic

SMILES: CCN(CC)CCNC(=O)c1c(C)[nH]c(/C=C2\C(=O)Nc3ccc(F)cc32)c1C [SUNITINIB]
inhibition in vivo at 5 mg/kg (MV4-11 [23]): 29.9%
